# In PubChem BioAssay (NCI):
#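 Assay format: 96-well plates, 48-hour exposure. GI50: concentration for 50% inhibition of growth. TGI denotes the concentration required for complete inhibition of growth.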
# Key:
# Test in all cases: DTP human tumour cell line panel, 48 h
# [1] = tested on: 786-0 renal
# [2] = tested on: A498 renal
# [3] = tested on: A549 NSCLC
# [4] = tested on: ACHN renal
# [5] = tested on: BT-549 breast
# [6] = tested on: CAKI-1 renal
# [7] = tested on: CCRF-CEM leukemia
# [8] = tested on: COLO 205 colon
# [9] = tested on: DU-145 prostate
# [10] = tested on: EKVX NSCLC
# [11] = tested on: HCC-2998 colon
# [12] = tested on: HCT-116 colon
# [13] = tested on: HCT-15 colon
# [14] = tested on: HL-60(TB) leukemia
# [15] = tested on: HOP-62 NSCLC
# [16] = tested on: HOP-92 NSCLC
# [17] = tested on: HS 578T breast
# [18] = tested on: HT29 colon
# [19] = tested on: IGROV1 ovarian
# [20] = tested on: K-562 leukemia
# [21] = tested on: KM12 colon
# [22] = tested on: LOX IMVI melanoma
# [23] = tested on: M14 melanoma
# [24] = tested on: MALME-3M melanoma
# [25] = tested on: MCF7 breast
# [26] = tested on: MDA-MB-231 breast
# [27] = tested on: MDA-MB-435
# [28] = tested on: MOLT-4 leukemia
# [29] = tested on: NCI-H226 lung
# [30] = tested on: NCI-H23 lung
# [31] = tested on: NCI-H460 lung
# [32] = tested on: NCI-H522 lung
# [33] = tested on: NCI/ADR-RES ovarian
# [34] = tested on: OVCAR-4 ovarian
# [35] = tested on: OVCAR-5 ovarian
# [36] = tested on: OVCAR-8 ovarian
# [37] = tested on: PC-3 prostate
# [38] = tested on: RPMI-8226 leukemia
# [39] = tested on: RXF 393 renal
# [40] = tested on: SF-268 CNS
# [41] = tested on: SF-295 CNS
# [42] = tested on: SF-539 CNS
# [43] = tested on: SK-MEL-2 melanoma
# [44] = tested on: SK-MEL-28 melanoma
# [45] = tested on: SK-MEL-5 melanoma
# [46] = tested on: SK-OV-3 ovarian
# [47] = tested on: SN12C renal
# [48] = tested on: SNB-19 CNS
# [49] = tested on: SNB-75 CNS
# [50] = tested on: SR leukemia
# [51] = tested on: SW-620 colon
# [52] = tested on: T-47D breast
# [53] = tested on: TK-10 renal
# [54] = tested on: U251 CNS
# [55] = tested on: UACC-257 melanoma
# [56] = tested on: UACC-62 melanoma
# [57] = tested on: UO-31 renal
structure (smiles),measurement,setting,value
COc1ccccc1/C=C/C=N/NC1=NC2C(S1)N(C)C(=O)N2c1ccccc1 (centres undefined),GI50,[1],642 nM
same,TGI,[1],13800 nM
same,GI50,[2],251 nM
same,TGI,[2],730 nM
same,GI50,[3],485 nM
same,TGI,[3],> 100000 nM
same,GI50,[4],692 nM
same,TGI,[4],> 48400 nM
same,GI50,[5],264 nM
same,TGI,[5],653 nM
same,GI50,[6],562 nM
same,TGI,[6],37800 nM
same,GI50,[7],408 nM
same,TGI,[7],> 78800 nM
same,GI50,[8],230 nM
same,TGI,[8],487 nM
same,GI50,[9],471 nM
same,TGI,[9],> 100000 nM
same,GI50,[10],729 nM
same,TGI,[10],> 100000 nM
same,GI50,[11],377 nM
same,TGI,[11],11600 nM
same,GI50,[12],353 nM
same,TGI,[12],5190 nM
same,GI50,[13],371 nM
same,TGI,[13],23100 nM
same,GI50,[14],294 nM
same,TGI,[14],> 31900 nM
same,GI50,[15],573 nM
same,TGI,[15],24700 nM
same,GI50,[16],202 nM
same,TGI,[16],1280 nM
same,GI50,[17],356 nM
same,TGI,[17],25500 nM
same,GI50,[18],332 nM
same,TGI,[18],1490 nM
same,GI50,[19],601 nM
same,TGI,[19],26300 nM
same,GI50,[20],383 nM
same,TGI,[20],> 100000 nM
same,GI50,[21],400 nM
same,TGI,[21],> 37100 nM
same,GI50,[22],458 nM
same,TGI,[22],12500 nM
same,GI50,[23],333 nM
same,TGI,[23],2340 nM
same,GI50,[24],2680 nM
same,TGI,[24],29000 nM
same,GI50,[25],385 nM
same,TGI,[25],> 100000 nM
same,GI50,[26],588 nM
same,TGI,[26],20900 nM
same,GI50,[27],250 nM
same,TGI,[27],636 nM
same,GI50,[28],404 nM
same,TGI,[28],> 100000 nM
same,GI50,[29],572 nM
same,TGI,[29],> 47900 nM
same,GI50,[30],474 nM
same,TGI,[30],> 100000 nM
same,GI50,[31],349 nM
same,TGI,[31],11000 nM
same,GI50,[32],210 nM
same,TGI,[32],575 nM
same,GI50,[33],359 nM
same,TGI,[33],> 100000 nM
same,GI50,[34],5230 nM
same,TGI,[34],> 100000 nM
same,GI50,[35],690 nM
same,TGI,[35],> 100000 nM
same,GI50,[36],357 nM
same,TGI,[36],2230 nM
same,GI50,[37],435 nM
same,TGI,[37],19600 nM
same,GI50,[38],396 nM
same,TGI,[38],11200 nM
same,GI50,[39],312 nM
same,TGI,[39],3360 nM
same,GI50,[40],1690 nM
same,TGI,[40],37200 nM
same,GI50,[41],336 nM
same,TGI,[41],99200 nM
same,GI50,[42],292 nM
same,TGI,[42],867 nM
same,GI50,[43],449 nM
same,TGI,[43],15300 nM
same,GI50,[44],11800 nM
same,TGI,[44],42200 nM
same,GI50,[45],545 nM
same,TGI,[45],5270 nM
same,GI50,[46],510 nM
same,TGI,[46],> 44800 nM
same,GI50,[47],617 nM
same,TGI,[47],29000 nM
same,GI50,[48],455 nM
same,TGI,[48],> 93400 nM
same,GI50,[49],419 nM
same,TGI,[49],> 53100 nM
same,GI50,[50],343 nM
same,TGI,[50],> 46800 nM
same,GI50,[51],403 nM
same,TGI,[51],18900 nM
same,GI50,[52],4040 nM
same,TGI,[52],> 79300 nM
same,GI50,[53],11400 nM
same,TGI,[53],> 70900 nM
same,GI50,[54],387 nM
same,TGI,[54],6280 nM
same,GI50,[55],2180 nM
same,TGI,[55],34500 nM
same,GI50,[56],456 nM
same,TGI,[56],37000 nM
same,GI50,[57],799 nM
same,TGI,[57],> 55600 nM
